Results reported in patent publication US20240009201A1, “CYP11B2 BETA HYDROXYLASE INHIBITORS FOR HYPERTENSION” (MINERALYS THERAPEUTICS, INC., priority 2020, published 2024).
Counter-ions that a name gives are not always drawn.

Columns and labels:
Assay type in all cases: in vivo
CYP11B2 = biological target: T1, CYP11B2 (Mus musculus, UniProt P15539); test: Radio-telemetry blood pressure in low renin hypertension animal model (Ay mice); details: 3 mg/kg/day via mini-osmotic pump, 7 days, FIG. 14
T1 construct: from tissue; host or cells: living mice (endogenous enzyme); obese AY mice, Balb/C mice (Jackson Labs #000651)
T1 sequence (P15539 25-500): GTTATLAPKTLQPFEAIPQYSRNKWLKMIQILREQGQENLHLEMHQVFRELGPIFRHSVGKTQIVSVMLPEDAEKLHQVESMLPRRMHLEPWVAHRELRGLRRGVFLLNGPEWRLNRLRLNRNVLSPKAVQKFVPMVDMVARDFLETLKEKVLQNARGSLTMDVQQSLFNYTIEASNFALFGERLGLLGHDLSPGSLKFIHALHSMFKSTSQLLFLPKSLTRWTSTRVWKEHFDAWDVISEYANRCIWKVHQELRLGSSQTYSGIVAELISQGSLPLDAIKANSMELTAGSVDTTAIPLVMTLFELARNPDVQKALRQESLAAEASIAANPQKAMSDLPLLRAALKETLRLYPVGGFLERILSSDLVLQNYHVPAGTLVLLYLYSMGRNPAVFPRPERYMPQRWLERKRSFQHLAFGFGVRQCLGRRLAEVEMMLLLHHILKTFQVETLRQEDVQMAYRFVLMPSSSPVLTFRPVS
Experimental: Purpose: To determine whether CYP11B2 blockade (via aldosterone synthase inhibition) improves cardiovascular function in an animal model for low renin hypertension.
Animal Model: All experiments were conducted in 12-16-week-old obese AY female mice.
Telemetry Protocol: The telemetry protocol is illustrated in FIG. 13.
Treatment Protocol: Male and female Balb/C mice (Jackson Labs, Bar Harbor, ME, Catalog #000651) at 10 weeks of age were utilized for all studies. Mice were implanted with indwelling telemeters (carotid catheter) (DSI© Model #PA-C10, New Brighton, MN) under isoflurane anesthesia as previously described. Following a 7-day recovery period baseline BP measurements were consciously recorded for 7 days while mice were on normal salt diet (NS) (0.2% NaCl, Teklad #2918, Envigo, United Kingdom). Mice were then treated with the test article (compound of formula (A), LCI699 or CIN-107, calculated to deliver 3 mg/kg/day) infused via an implanted mini-osmotic pump for an additional 7 days.
Blood pressure measurement: For each protocol described in FIG. 13, 12 mice were used to record systolic, diastolic, mean arterial pressure heart rate and activity via radio-telemetry. Telemetry transmitters were implanted in the carotid artery at 12 weeks of age. After 2 weeks of recovery from surgery, baseline blood pressure was recorded for 7 consecutive days. Animals were then submitted to the treatment (compound of formula (A) HBr/LCI/CIN).
Quantification of the effects of compound of formula (A) HBr, LCI, CIN on the degree of RAAS activation: Blood was collected from all the treated mice to investigate the effects of the aldosterone synthase inhibitors on plasma aldosterone, Angiotensin II and indices of RAS activation via LC-MS/MS.

aldosterone synthase [1] = biological target: T2, aldosterone synthase (Homo sapiens, UniProt P19099); test: Randomized, double-blinded, placebo-controlled SAD and MAD study (overall findings)
T2 construct: from tissue; host or cells: living human subjects (endogenous adrenal enzyme)
T2 sequence (P19099 25-503): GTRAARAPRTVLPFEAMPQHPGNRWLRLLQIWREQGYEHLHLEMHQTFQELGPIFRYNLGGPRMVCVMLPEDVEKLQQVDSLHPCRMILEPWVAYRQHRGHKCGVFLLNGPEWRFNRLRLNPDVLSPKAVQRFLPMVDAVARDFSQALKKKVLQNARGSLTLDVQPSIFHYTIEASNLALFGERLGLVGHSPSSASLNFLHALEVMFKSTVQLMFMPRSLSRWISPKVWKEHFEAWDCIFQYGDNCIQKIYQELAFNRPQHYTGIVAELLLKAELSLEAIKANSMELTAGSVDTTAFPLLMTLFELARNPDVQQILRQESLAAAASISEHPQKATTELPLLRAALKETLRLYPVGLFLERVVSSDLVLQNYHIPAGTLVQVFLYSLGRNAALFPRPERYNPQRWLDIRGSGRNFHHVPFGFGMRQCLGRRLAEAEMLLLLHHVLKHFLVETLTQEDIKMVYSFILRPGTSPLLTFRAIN
Excerpt: Aldosterone is produced by an aldosterone synthase, encoded by the gene CYP11B2. Aldosterone synthase catalyzes the final 3 steps in aldosterone synthesis, sequentially (1) from 11-deoxycorticosterone (11-DOC) to corticosterone, (2) from corticosterone to 18-OH-corticosterone, and (3) from 18-OH-corticosterone to aldosterone. […] 11β-hydroxylase catalyzes the conversion of 11-deoxycortisol to cortisol, and 11-deoxycorticosterone (11-DOC) to corticosterone.
Because 11-DOC is a substrate for both CYP11B1 and CYP11B2, use of a selective aldosterone synthase inhibitor which preserves the activity of CYP11B1 is important for preventing accumulation of the precursor 11-DOC.
(§1) Single Ascending Dose (SAD) and Multiple Ascending Dose (MAD) Study
(§2) A randomized, double-blinded, placebo-controlled study was conducted in which 116 patients were randomized and 87 received the compound of Formula A in the form of an HBr salt.

aldosterone synthase [2] = biological target: T2, aldosterone synthase; test: Single ascending dose (SAD) study
Experimental: as §1, §2
Exposure above about 3-4 times the inhibition constant (Ki) was associated with duration of aldosterone suppression (FIG. 4).

aldosterone synthase [3] = biological target: T2, aldosterone synthase; test: Multiple ascending dose (MAD) study
Experimental: as §1, §2

SMILES: CCC(=O)N[C@@H]1CCCc2c(-c3ccc4c(c3)CCC(=O)N4C)cncc21 [CIN-107]
- mean arterial blood pressure (MAP) (CYP11B2): reduced MAP to a similar degree and to a value comparable to that seen in control mice

SMILES: CC(=O)N[C@H]1CC[C@H](NC(=O)CN2CCN(c3nncc(-c4ccc(C)cc4)n3)CC2)CC1 [Compound A HBr, N-[trans-4-(acetylamino)cyclohexyl]-2-{4-[5-(4-methylphenyl)-1,2,4-triazin-3-yl]piperazin-1-yl}acetamide monohydrobromide]
- clinical laboratory, vital signs, ECGs or physical examination (aldosterone synthase [1]; SAD/MAD study): No clinically significant findings
- deaths or serious adverse events (SAEs) (aldosterone synthase [1]; SAD/MAD study): No deaths or serious adverse events (SAEs) occurred
- effect on cortisol levels (aldosterone synthase [1]; SAD/MAD study): no effect on cortisol levels
- hyperkalemia (aldosterone synthase [1]; SAD/MAD study): No hyperkalemia was noted
- plasma aldosterone (aldosterone synthase [1]; SAD/MAD study, 87 received the compound): rapid and durable reduction/suppression of plasma aldosterone
- adverse events (AEs) (aldosterone synthase [1]; compound groups vs placebo groups): comparable between the groups receiving the compound and placebo groups
- serum cortisol (aldosterone synthase [2]; FIG. 2 (AUC-24)): no evidence of dose-dependent reduction in serum cortisol
- exposure associated with duration of aldosterone suppression (aldosterone synthase [2]; FIG. 4 (Cpu/Ki)): 3-4 times the inhibition constant (Ki)
- duration of maximum aldosterone suppression (aldosterone synthase [2]; FIG. 5): dose-dependent increase
- reduction of serum aldosterone (aldosterone synthase [2]; dose of 50 mg, FIG. 1 (AUC-24)): 50%
- 11-DOC level (aldosterone synthase [3]; 360 mg dose level, FIG. 7): Accumulation of 11-DOC
- serum aldosterone during the washout phase (aldosterone synthase [3]; 360 mg dose, FIG. 6): overshoot in serum aldosterone
- Plasma Renin Activity (PRA) (aldosterone synthase [3]; FIG. 9): dose-dependent increase
- dose giving 50% of maximum increase in Plasma Renin Activity (PRA) (aldosterone synthase [3]; FIG. 9): 40 mg
- benefits on renal tubular sodium excretion (aldosterone synthase [3]; FIG. 12): seen at lower doses than are required for stimulation of renin and accumulation of 11-DOC
- serum K+ (aldosterone synthase [3]; all doses tested, FIG. 10): physiological, non-adverse, increase in K^+
- adrenocorticotropic hormone (ACTH)-stimulated aldosterone secretion (aldosterone synthase [3]; all doses tested, FIG. 11): suppression of adrenocorticotropic hormone (ACTH)-stimulated aldosterone secretion
- dose-effect on duration of maximum aldosterone suppression (aldosterone synthase [3]; day 7, FIG. 8): consistent with the SAD study
- drug accumulation (aldosterone synthase [3]; multiple dosing): little drug accumulation
- mean arterial blood pressure (MAP) (CYP11B2): reduced MAP to a similar degree and to a value comparable to that seen in control mice

SMILES: N#Cc1ccc([C@H]2CCc3cncn32)c(F)c1 [LCI699]
- mean arterial blood pressure (MAP) (CYP11B2): reduced MAP to a similar degree and to a value comparable to that seen in control mice

SMILES: CC(=O)N[C@H]1CC[C@H](NC(=O)CN2CCN(c3nncc(-c4ccc(C)cc4)n3)CC2)CC1 [compound of Formula (A), N-[trans-4-(acetylamino)cyclohexyl]-2-{4-[5-(4-methylphenyl)-1,2,4-triazin-3-yl]piperazin-1-yl}acetamide]
- dose range of aldosterone suppression without increase in 11-DOC or change in cortisol production (selectivity) (aldosterone synthase [1]; in vivo): wide does range at which aldosterone is suppressed without an increase in 11-DOC or change in cortisol production
